Literature values as cited in US12303597B2, “Naloxone formulations for sublingual and/or buccal administration” (Pharmaceutical Productions, Inc., priority 2019, dated 2025).
Structures can show the parent of a compound that is named as a salt. Where two headings read alike, the source gives them in different places.

SMILES	solubility in water (hydrochloride)	solubility in water
C=CCN1CC[C@]23c4c5ccc(O)c4O[C@H]2C(=O)CC[C@@]3(O)[C@H]1C5 [Naloxone hydrochloride]	soluble in water	–
C=CCN1CC[C@]23c4c5ccc(O)c4O[C@H]2C(=O)CC[C@@]3(O)[C@H]1C5 [naloxone base, 17-allyl-4,5α-epoxy-3,14-dihydroxymorphinan-6-one]	–	insoluble in water
